Laboratory results taken from patent US7557123B2, “Heterocyclic compound and medicinal use thereof” (Kyoto Pharmaceutical Industries, Ltd., priority 2001, dated 2009).

These compounds were tested on male KK-A^y mice (assay: Hypoglycemic and hypolipidemic activity in spontaneously diabetic KK-Ay mice). Details: 10 mg/kg/day orally for 4 consecutive days, plasma 24 hours after final administration, non-fasting, vs control group.
Format: in vivo
Experimental: Blood was drawn under a non-fasting state from the tail vein of male KK-A^y mice, and the glucose and triglyceride levels of the plasma were measured using commercially available assay kits (glucose CII-test WAKO and triglyceride G-test WAKO, Wako Pure Chemical Industries, Ltd.). The mice were grouped (5 mice per group) into a control group and an administration group, such that the mean and standard deviation of the body weight and the plasma glucose and plasma triglyceride levels in each group were nearly the same. The test compounds (compounds of Examples 1, 2, 4, 8, 20, 22, 24, 27, 30, 33, 36, 37, 40, 45, 47, 52, 56, 58 and 64) were suspended in 5% gum arabic solution and administered (10 mg/kg/day) orally to the administration group for 4 consecutive days. The 5% gumarabic solution was orally administered to the control group. Blood was drawn under a non-fasting state from the tail vein 24 hours after the final administration and the glucose and triglyceride levels of the plasma were measured. The decrease in the plasma glucose and triglyceride levels was calculated from the following formula. Decrease (%)=[(mean of control group−mean of test compound administration group)/mean of control group]×100 Results

In order of falling “Decrease (%) in glucose level” value:
1. CC(C)(C)N.CC=CC=CC(=O)N1Cc2cc(OCCc3nc(/C(C)=C/CCC)oc3C)ccc2C[C@H]1C(=O)O (stereo in doubt) [Example 33, tert-butylamine 2-(2,4-hexadienoyl)-7-(2-[5-methyl-2-(1-methyl-trans-1-penten-1-yl)oxazol-4-yl]ethoxy}-1,2,3,4-tetrahydroisoquinoline-(3S)-carboxylate]  58.2%
2. CCC/C=C/c1nc(CCOc2ccc3c(c2)CN(C(=O)C(F)(F)C(F)(F)F)[C@H](C(=O)O)C3)c(C)o1 (stereo in doubt) [Example 37]  53.2%
3. CCCC#CC(=O)N1Cc2cc(OCCc3nc(/C=C/CCC)oc3C)ccc2C[C@H]1C(=O)O (stereo in doubt) [Example 4, 2-(2-hexynoyl)-7-[2-(5-methyl-2-(trans-1-penten-1-yl)oxazol-4-yl)ethoxy]-1,2,3,4-tetrahydroisoquinoline-(3S)-carboxylic acid]  40.3%
4. CC(C)(C)N.CC=CC=CC(=O)N1Cc2cc(OCCc3nc(/C(C)=C/CC)oc3C)ccc2C[C@H]1C(=O)O (stereo in doubt) [Example 36, tert-butylamine 2-(2,4-hexadienoyl)-7-{2-[5-methyl-2-(1-methyl-trans-1-buten-1-yl)oxazol-4-yl]ethoxy}-1,2,3,4-tetrahydroisoquinoline-(3S)-carboxylate]  39.8%
5. CC(C)(C)N.CC=CC=CC(=O)N1Cc2cc(OCCc3nc(/C=C/CC(C)(C)C)oc3C)ccc2C[C@H]1C(=O)O (stereo in doubt) [Example 45, tert-butylamine 7-{2-[2-(4,4-dimethyl-trans-1-penten-1-yl)-5-methyloxazol-4-yl]ethoxy)-2-(2,4-hexadienoyl)-1,2,3,4-tetrahydroisoquinoline-(3S)-carboxylate]  38.7%
6. CC(C)(C)N.CCC/C=C/c1nc(CCOc2ccc3c(c2)CN(C(=O)C=CCC(C)C)[C@H](C(=O)O)C3)c(C)o1 (stereo in doubt) [Example 47, tert-butylamine 2-(5-methyl-2-hexenoyl)-7-(2-[5-methyl-2-(trans-1-penten-1-yl)oxazol-4-yl]ethoxy}-1,2,3,4-tetrahydroisoquinoline-(3S)-carboxylate]  29.9%
7. CC(C)(C)N.CCC/C=C/c1nc(CCOc2ccc3c(c2)CN(C(=O)C(F)(F)CC)[C@H](C(=O)O)C3)c(C)o1 (stereo in doubt) [Example 52, tert-butylamine 2-(2,2-difluorobutyryl)-7-{2-[5-methyl-2-(trans-1-penten-1-yl)oxazol-4-yl]ethoxy}-1,2,3,4-tetrahydroisoquinoline-(3S)-carboxylate]  26.6%
8. C=CCCCN1Cc2cc(OCCc3nc(/C=C/CC(C)C)oc3C)ccc2C[C@H]1C(=O)O (stereo in doubt) [Example 58, 7-{2-[5-methyl-2-(4-methyl-trans-1-penten-1-yl)oxazol-4-yl]ethoxy}-2-(4-pentenyl)-1,2,3,4-tetrahydroisoquinoline-(3S)-carboxylic acid]  25.1%
9. CC(C)(C)N.CC=CC=CC(=O)N1Cc2cc(OCCc3nc(/C=C/C4(C)CCCCC4)oc3C)ccc2C[C@H]1C(=O)O (stereo in doubt) [Example 56]  21.0%

In order of rising “Decrease (%) in triglyceride level” value:
1. CC(C)(C)N.CCC/C=C/c1nc(CCOc2ccc3c(c2)CN(C(=O)C=CCC(C)C)[C@H](C(=O)O)C3)c(C)o1 (stereo in doubt) [Example 47, tert-butylamine 2-(5-methyl-2-hexenoyl)-7-(2-[5-methyl-2-(trans-1-penten-1-yl)oxazol-4-yl]ethoxy}-1,2,3,4-tetrahydroisoquinoline-(3S)-carboxylate]  10.9%
2. CC(C)(C)N.CC=CC=CC(=O)N1Cc2cc(OCCc3nc(/C=C/C4(C)CCCCC4)oc3C)ccc2C[C@H]1C(=O)O (stereo in doubt) [Example 56]  11.9%
3. CC(C)(C)N.CCC/C=C/c1nc(CCOc2ccc3c(c2)CN(C(=O)C(F)(F)CC)[C@H](C(=O)O)C3)c(C)o1 (stereo in doubt) [Example 52, tert-butylamine 2-(2,2-difluorobutyryl)-7-{2-[5-methyl-2-(trans-1-penten-1-yl)oxazol-4-yl]ethoxy}-1,2,3,4-tetrahydroisoquinoline-(3S)-carboxylate]  19.1%
4. C=CCCCN1Cc2cc(OCCc3nc(/C=C/CC(C)C)oc3C)ccc2C[C@H]1C(=O)O (stereo in doubt) [Example 58, 7-{2-[5-methyl-2-(4-methyl-trans-1-penten-1-yl)oxazol-4-yl]ethoxy}-2-(4-pentenyl)-1,2,3,4-tetrahydroisoquinoline-(3S)-carboxylic acid]  23.2%
5. CC(C)(C)N.CC=CC=CC(=O)N1Cc2cc(OCCc3nc(/C(C)=C/CC)oc3C)ccc2C[C@H]1C(=O)O (stereo in doubt) [Example 36, tert-butylamine 2-(2,4-hexadienoyl)-7-{2-[5-methyl-2-(1-methyl-trans-1-buten-1-yl)oxazol-4-yl]ethoxy}-1,2,3,4-tetrahydroisoquinoline-(3S)-carboxylate]  27.5%
6. CC(C)(C)N.CC=CC=CC(=O)N1Cc2cc(OCCc3nc(/C=C/CC(C)(C)C)oc3C)ccc2C[C@H]1C(=O)O (stereo in doubt) [Example 45, tert-butylamine 7-{2-[2-(4,4-dimethyl-trans-1-penten-1-yl)-5-methyloxazol-4-yl]ethoxy)-2-(2,4-hexadienoyl)-1,2,3,4-tetrahydroisoquinoline-(3S)-carboxylate]  32.6%
7. CCCC#CC(=O)N1Cc2cc(OCCc3nc(/C=C/CCC)oc3C)ccc2C[C@H]1C(=O)O (stereo in doubt) [Example 4, 2-(2-hexynoyl)-7-[2-(5-methyl-2-(trans-1-penten-1-yl)oxazol-4-yl)ethoxy]-1,2,3,4-tetrahydroisoquinoline-(3S)-carboxylic acid]  40.5%
8. CCC/C=C/c1nc(CCOc2ccc3c(c2)CN(C(=O)C(F)(F)C(F)(F)F)[C@H](C(=O)O)C3)c(C)o1 (stereo in doubt) [Example 37]  50.1%
9. CC(C)(C)N.CC=CC=CC(=O)N1Cc2cc(OCCc3nc(/C(C)=C/CCC)oc3C)ccc2C[C@H]1C(=O)O (stereo in doubt) [Example 33, tert-butylamine 2-(2,4-hexadienoyl)-7-(2-[5-methyl-2-(1-methyl-trans-1-penten-1-yl)oxazol-4-yl]ethoxy}-1,2,3,4-tetrahydroisoquinoline-(3S)-carboxylate]  68.3%
